This note sets out measurements from patent US20240108738A1, “BICYCLIC PEPTIDE LIGANDS SPECIFIC FOR NK CELLS” (Bicycle Tx Limited, priority 2021, published 2024).

For orientation: Ki means a dissociation constant, usually derived from enzyme kinetics or from competition with a known ligand. Broadly, the IC50 is the concentration at which inhibition is half-maximal. Usually Kd stands for the constant that tells how readily two partners part at equilibrium.

In test [1] the target is T1, human NKp46-his tagged protein (Homo sapiens, UniProt O76036).
T1 construct: His tag; purchased AcroBiosystems
The experiment in a line: NKp46 Fluorescence Polarization (FP) competition binding assay, tracer BCY15035. (Fluorescence polarisation rises when a labelled molecule tumbles more slowly, as on binding a larger partner.)

Test [2] has as its target T2, CD16a/FCgRIIIa (F158 variant) (Homo sapiens, UniProt P08637).
T2 construct: host or cells: HEK293
The experiment in a line: CD16a/FCgRIIIa HTRF assay (IgG competition on HEK293 cells). The test is classed as binding. In general terms: Time-resolved FRET reads energy transfer from a long-lived donor to a nearby acceptor.

For test [3], the target named is CD16a (V Variant) (Homo sapiens, UniProt P08637, F176V). In words: FcγRIII (CD16a) SPR (Method A and/or Method B), V variant. Type of test: binding.
Test [4] concerns the target CD16a (F Variant) (Homo sapiens, UniProt P08637). In words: FcγRIII (CD16a) SPR (Method A and/or Method B), F variant. The test is classed as binding. Particulars: SPR Method A and/or B, Table 6B; read-out: Kd (nM) (F Variant).
Test [5] concerns human CD16a V176 variant. The experiment in a line: IgG competition assay (AlphaScreen), V variant. Type of test: binding. The conditions noted are these: N-terminally biotinylated CD16a V176 10 nM, mouse IgG2a acceptor beads. In general terms: In Alpha technology, singlet oxygen from a donor bead excites a nearby acceptor bead.
Test [6] has as its target T3, Fc-tagged human NKp46 (Homo sapiens, UniProt O76036).
T3 construct: purchased ACROBiosystems NC1-H5257
The experiment in a line: NKp46 SPR assay (Method 1 and/or Method 2). The conditions noted are these: SPR Method 1 and/or Method 2, Table 3B. The test is classed as binding. In outline: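 Method 1: biotinylated Avi-tag NKp46-Fc on streptavidin chip, peptides to 100-5000 nM top in PBS/0.05% Tween 20, 0.5% DMSO; 1:1 kinetic fit with mass transport. Method 2: NKp46-Fc captured by anti-Fc, PBS-P+ 2% DMSO; steady-state or kinetic 1:1 fit. Both 25° C, 50 μl/min, 60 s association.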

The mark [7] stands for this setting: SPR Method A and/or B, Table 6B, read-out: Kd (nM) (V Variant).

Read-outs that look alike come from different tables or passages of the source. Numbered stars: 1 amine (or outer) side, 2 acyl side, 3 side chain; on linkers, the order of the positions; unused ones are H or OH. Bridge positions count the residues as written; N and C are the ends. Square brackets hold non-standard residues; d marks the D form. Peptide text beside a SMILES is read from it. * marks the point of attachment. TATA = O=C(CC[*:1])N1CN(C(=O)CC[*:2])CN(C(=O)CC[*:3])C1; Biotin = O=C1N[C@H]2[C@H](CS[C@H]2CCCCC(=O)*)N1; Cba = N[C@@H](CC1CCC1)C(=O)O; Sar = CNCC(=O)O

For the molecule `CC(C)C[C@@H]1NC(=O)[C@H](Cc2ccc(O)cc2)NC(=O)[C@H](CC(=O)O)NC(=O)[C@@H]2CCCN2C(=O)[C@H](CC2CCC2)NC(=O)[C@H](Cc2ccc(O)cc2)NC(=O)[C@@H](NC(=O)[C@H](C)N)CSCCC(=O)N2CN3CN(C2)C(=O)CCSC[C@@H](C(=O)N[C@@H](C)C(N)=O)NC(=O)[C@H](Cc2ccc(O)cc2)NC(=O)[C@H](CCC(=O)O)NC(=O)[C@H](CC(=O)O)NC(=O)CNC(=O)[C@H](CSCCC3=O)NC1=O` [BCY15639, A-(SEQ ID NO: 16)-A] (H-ACY[Cba]PDYLCGDEYCA-NH2; linker 2-9-14 via TATA), in test [1], the affinity corresponds to a Ki of 0.017 µM. This counts as double-digit nanomolar.
In test [2], `CC(C)C[C@@H]1NC(=O)CNC(=O)[C@H](C(C)C)NC(=O)[C@@H](NC(=O)[C@H](C)N)CSCc2nc3nc(n2)CSC[C@H](NC(=O)[C@@H]2CCCN2C(=O)CNC(=O)[C@H](CC(C)C)NC(=O)[C@H](CCC(=O)O)NC(=O)[C@H](CCC(=O)O)NC1=O)C(=O)N[C@@H](CO)C(=O)N[C@@H](CC(=O)O)C(=O)N[C@@H](CC(C)C)C(=O)N[C@H](C(=O)N[C@@H](C)C(N)=O)CSC3` [BCY16493, A-(SEQ ID NO: 62)-A] came in with an IC50 of 4.79 µM. Besides, binding in test [3] was characterised by a dissociation constant (Kd) of 7330 nM.
In test [1], `CC(C)C[C@@H]1NC(=O)[C@H](Cc2ccc(O)cc2)NC(=O)[C@@H](NC(=O)[C@H](C)N)CSCCC(=O)N2CN3CN(C2)C(=O)CCSC[C@@H](C(=O)N[C@@H](C)C(N)=O)NC(=O)[C@H](Cc2ccc(O)cc2)NC(=O)[C@H](CCC(=O)O)NC(=O)[C@H](CC(=O)O)NC(=O)CNC(=O)[C@H](CSCCC3=O)NC(=O)[C@H](CC(C)(C)C)NC(=O)[C@H](Cc2c[nH]c3ccccc23)NC(=O)[C@H](CC(=O)O)NC(=O)[C@@H]2CCCN2C1=O` [BCY15648, A-(SEQ ID NO: 24)-A] registered a Ki of 1.62 µM.
For the molecule `CC(C)C[C@@H]1NC(=O)[C@@H]2CCCN2C(=O)[C@H](Cc2c[nH]cn2)NC(=O)[C@@H]2CSCCC(=O)N3CN(CN(C3)C(=O)CCSC[C@H](NC(=O)[C@H](C)N)C(=O)N3CCC[C@H]3C(=O)N3CCC[C@H]3C(=O)N[C@@H]([C@@H](C)O)C(=O)N[C@@H](C(C)C)C(=O)N[C@@H](Cc3ccc(O)cc3)C(=O)N2)C(=O)CCSC[C@@H](C(=O)N[C@@H](C)C(N)=O)NC(=O)[C@H](CC(=O)O)NC1=O` [BCY11808, A-(SEQ ID NO: 60)-A], the concentration for half-maximal inhibition (IC50) in test [2] (HTRF, competition with IgG-d2 on HEK293 cells expressing Terbium-labelled CD16a, 2 h at RT, read-out: IC50) came to 9.44 µM. The Kd in test [3] (setting [7]) was 3710 nM.
For the molecule `CC(C)C[C@@H]1NC(=O)[C@@H]2CCCN2C(=O)[C@H](Cc2c[nH]cn2)NC(=O)[C@@H]2CSCCC(=O)N3CN(CN(C3)C(=O)CCSC[C@H](NC(=O)[C@H](C)N)C(=O)N3CCC[C@H]3C(=O)N3CCC[C@H]3C(=O)N[C@@H](CCC(=O)O)C(=O)N[C@@H](C(C)C)C(=O)N[C@@H](Cc3ccc(O)cc3)C(=O)N2)C(=O)CCSC[C@@H](C(=O)N[C@@H](C)C(N)=O)NC(=O)[C@H](CC(=O)O)NC1=O` [BCY11810, A-(SEQ ID NO: 171)-A] (H-ACPPEVYCHPLDCA-NH2; linker 2-8-13 via TATA), the dissociation constant Kd was determined as 832 nM in test [3] (setting [7]) and 3610 nM in test [4].
As for `C#CCCC(=O)NCCCC[C@H](NC(=O)[C@H](C)NC(=O)[C@@H]1CSCCC(=O)N2CN3CN(C2)C(=O)CCSC[C@H](NC(=O)[C@H](C)N)C(=O)N2CCC[C@H]2C(=O)N2CCC[C@H]2C(=O)N[C@@H]([C@@H](C)O)C(=O)N[C@@H](C(C)C)C(=O)N[C@@H](Cc2ccc(O)cc2)C(=O)N[C@@H](CSCCC3=O)C(=O)N[C@@H](Cc2c[nH]cn2)C(=O)N2CCC[C@H]2C(=O)N[C@@H](CC(C)C)C(=O)N[C@@H](CC(=O)O)C(=O)N1)C(N)=O` [BCY15685, A-(SEQ ID NO: 60)-A-[K(PYA)]], in test [5], the IC50 came out at 3480 nM.
The molecule `CC(C)C[C@@H]1NC(=O)[C@H](Cc2ccc(O)cc2)NC(=O)[C@H](CC(=O)O)NC(=O)[C@@H]2CCCN2C(=O)[C@H](CC(C)C)NC(=O)[C@H](Cc2ccc(O)cc2)NC(=O)[C@@H](NC(=O)[C@H](C)N)CSCCC(=O)N2CN3CN(C2)C(=O)CCSC[C@H](NC1=O)C(=O)N[C@H](C)C(=O)N[C@@H](CC(=O)O)C(=O)N[C@@H](CCC(=O)O)C(=O)N[C@@H](Cc1ccc(O)cc1)C(=O)N[C@H](C(=O)N[C@@H](C)C(N)=O)CSCCC3=O` [BCY15650, A-(SEQ ID NO: 26)-A] (H-ACYLPDYLC[dA]DEYCA-NH2; linker 2-9-14 via TATA; N-terminus assumed) yielded an equilibrium dissociation constant (Kd) in test [6] of 0.01 ± 0.003 µM. In test [1], this molecule showed a Ki of 0.016 µM.
Turning to `CC(C)C[C@@H]1NC(=O)[C@@H]2CCCN2C(=O)[C@H](Cc2c[nH]cn2)NC(=O)[C@@H]2CSCCC(=O)N3CN(CN(C3)C(=O)CCSC[C@H](NC(=O)[C@H](C)N)C(=O)N3CCC[C@H]3C(=O)N3CCC[C@H]3C(=O)N[C@@H](CCC(=O)O)C(=O)N[C@@H](C(C)C)C(=O)N[C@@H](Cc3c[nH]c4ccccc34)C(=O)N2)C(=O)CCSC[C@@H](C(=O)N[C@@H](C)C(N)=O)NC(=O)[C@H](CC(=O)O)NC1=O` [BCY11811, A-(SEQ ID NO: 172)-A] (H-ACPPEVWCHPLDCA-NH2; linker 2-8-13 via TATA), the dissociation constant Kd in test [3] (setting [7]) turned out to be 1230 nM; in test [4], 8240 nM.
As to `CC(C)C[C@@H]1NC(=O)[C@@H]2CCCN2C(=O)[C@H](Cc2c[nH]cn2)NC(=O)[C@@H]2CSCCC(=O)N3CN(CN(C3)C(=O)CCSC[C@H](NC(=O)[C@H](C)N)C(=O)N3CCC[C@H]3C(=O)N3CCC[C@H]3C(=O)N[C@@H](CCC(=O)O)C(=O)N[C@@H](C(C)C)C(=O)N[C@@H](Cc3ccccc3)C(=O)N2)C(=O)CCSC[C@@H](C(=O)N[C@@H](C)C(N)=O)NC(=O)[C@H](CC(=O)O)NC1=O` [BCY11809, A-(SEQ ID NO: 170)-A] (H-ACPPEVFCHPLDCA-NH2; linker 2-8-13 via TATA; N-terminus and C-terminus assumed), the dissociation constant (Kd) in test [3] (setting [7]) was 4330 nM; in test [4], 28600 nM.
With `C[C@H](N)C(=O)N[C@H]1CSCc2nc3nc(n2)CSC[C@H](NC(=O)[C@@H]2CCCN2C(=O)[C@H](CCC(=O)O)NC(=O)[C@H](CO)NC(=O)[C@@H]2C[C@@H](O)CN2C(=O)[C@H](Cc2c[nH]cn2)NC(=O)[C@H](Cc2c[nH]c4ccccc24)NC(=O)[C@H](CCCNC(=N)N)NC1=O)C(=O)NCC(=O)N[C@@H](C)C(=O)N[C@@H](Cc1c[nH]c2ccccc12)C(=O)N[C@H](C(=O)N[C@@H](C)C(N)=O)CSC3` [BCY20383, A-(SEQ ID NO: 228)-A], in test [2], the half-maximal inhibitory concentration (IC50) worked out at 1.11 µM.
With `CC(C)C[C@@H]1NC(=O)[C@@H]2CCCN2C(=O)[C@H](Cc2c[nH]cn2)NC(=O)[C@@H]2CSCCC(=O)N3CN(CN(C3)C(=O)CCSC[C@H](NC(=O)[C@H](C)N)C(=O)N3CCC[C@H]3C(=O)N3CCC[C@H]3C(=O)N[C@@H](C)C(=O)N[C@@H](C(C)C)C(=O)N[C@@H](Cc3ccc(O)cc3)C(=O)N2)C(=O)CCSC[C@@H](C(=O)N[C@@H](C)C(N)=O)NC(=O)[C@H](CC(=O)O)NC1=O` [BCY11673, A-(SEQ ID NO: 169)-A] (H-ACPPAVYCHPLDCA-NH2; linker 2-8-13 via TATA; C-terminus assumed), the Kd worked out at 3310 nM in test [3] (setting [7]) and 17100 nM in test [4].
For the molecule `CC(C)C[C@@H]1NC(=O)[C@@H]2CCCN2C(=O)[C@H](Cc2c[nH]cn2)NC(=O)[C@@H]2CSCCC(=O)N3CN(CN(C3)C(=O)CCSC[C@H](NC(=O)[C@H](C)N)C(=O)N3CCC[C@H]3C(=O)N3CCC[C@H]3C(=O)N[C@@H](CCC(=O)O)C(=O)N[C@@H](C(C)C)C(=O)N[C@@H](Cc3c[nH]c4ccccc34)C(=O)N2)C(=O)CCSC[C@@H](C(=O)N[C@@H](C)C(=O)N(C)CC(=O)N(C)CC(=O)N(C)CC(=O)N(C)CC(=O)N(C)CC(=O)N(C)CC(=O)N[C@@H](CCCCNC(=O)CCCC[C@@H]2SC[C@@H]3NC(=O)N[C@@H]32)C(N)=O)NC(=O)[C@H](CC(=O)O)NC1=O` [BCY12622, A-(SEQ ID NO: 174)-A-[Sar6]-[KBiot]] (H-ACPPEVWCHPLDCA[Sar][Sar][Sar][Sar][Sar][Sar]K(Biotin)-NH2; linker 2-8-13 via TATA; N-terminus assumed), the dissociation constant (Kd) stood at 4000 nM in test [3] (setting [7]) and 1000 nM in test [4].
Turning to `CC(=O)N[C@H]1CSCCC(=O)N2CN3CN(C2)C(=O)CCSC[C@H](NC(=O)[C@H](CC(C)C)NC(=O)[C@H](Cc2ccc(O)cc2)NC(=O)[C@H](CC(=O)O)NC(=O)[C@@H]2CCCN2C(=O)[C@H](CC2CCC2)NC(=O)[C@H](Cc2ccc(O)cc2)NC1=O)C(=O)N[C@H](C)C(=O)N[C@@H](CC(=O)O)C(=O)N[C@@H](CCC(=O)O)C(=O)N[C@@H](Cc1ccc(O)cc1)C(=O)N[C@H](C(N)=O)CSCCC3=O` [BCY16133, Ac-(SEQ ID NO: 40)] (Ac-CY[Cba]PDYLC[dA]DEYC-NH2; linker 1-8-13 via TATA; C-terminus assumed), the affinity in test [1], expressed as Ki, was 0.01 µM.
